According to US5736539A, “Inhibitors of farnesyl-protein transferase” (Merck & Co., Inc., priority 1995, dated 1998):
Counter-ions that a name gives are not always drawn.

Columns and labels:
[1] = target: Farnesyl-protein transferase (FPTase); assay: In vitro inhibition of ras farnesyl transferase (Ras-CVLS, [3H]FPP); type: biochemical, bovine brain or recombinant human; details: Ras-CVLS 3.5 μM, 0.25 μM [3H]FPP; partially purified bovine or recombinant human enzyme; read-out: IC50 (concentration of the test compound which gives 50% inhibition of FPTase)
Procedure: Ras-CVLS at 3.5 μM, 0.25 μM [^3 H]FPP, and the indicated compounds were incubated with either a partially purified bovine enzyme preparation or a recombinant human enzyme preparation.

[2] = tested on: Ras farnesylation in the v-ras cell line (viral Ha-ras p21); assay: In vivo ras farnesylation assay (v-ras cell line, immunoprecipitation, percent inhibition of farnesyl transfer to protein); type: cell-based; details: 4 h at 37° C. then additional 20 h labelling with [35S]methionine
Procedure: In vivo ras farnesylation assay
The cell line used in this assay was the v-ras line, which expressed viral Ha-ras p21. The assay was performed essentially as described in DeClue, J. E. et. al., Cancer Research 51,712-717, (1991). Cells in 10 cm dishes at 50-75% confluency were treated with the test compound (final concentration of solvent, methanol or dimethyl sulfoxide, was 0.1%). After 4 hours at 37° C., the cells were labelled in 3 ml methionine-free DMEM supplemeted with 10% regular DMEM, 2% fetal bovine serum and 400 μCi[^35 S]methionine (1000 Ci/mmol). After an additional 20 hours, the cells were lysed in 1 ml lysis buffer (1% NP40/20 mM HEPES, pH 7.5/5 mM MgCl2 /1 mM DTT/10 μg/ml aprotinen/2 μg/ml leupeptin/2 μg/ml antipain/0.5 mM PMSF) and the lysates cleared by centrifugation at 100,000×g for 45 min. Aliquots of lysates containing equal numbers of acid-precipitable counts were bought to 1 ml with IP buffer (lysis buffer lacking DTT) and immunoprecipitated with the ras-specific monoclonal antibody Y13-259 (Furth, M. E. et. al., J. Virol. 43, 294-304, (1982)). Following a 2 hour antibody incubation at 4° C., 200 μl of a 25% suspension of protein A-Sepharose coated with rabbit anti rat IgG was added for 45 min. The immunoprecipitates were washed four times with IP buffer ([…] HEPES, pH 7.5/1 mM EDTA/1% Triton X-100.0.5% deoxycholate/0.1%/SDS/0.1M NaCl) boiled in SDS-PAGE sample buffer and loaded on 13% acrylamide gels. When the dye front reached the bottom, the gel was fixed, soaked in Enlightening, dried and autoradiographed. The intensities of the bands corresponding to farnesylated and nonfarnesylated ras proteins were compared to determine the percent inhibition of farnesyl transfer to protein.

[3] = tested on: Ras farnesylation; details: Hancock et al.; Casey et al.; Schafer et al., Science 245:379 (1989); cited from earlier work

Compound | IC50 [1] [nM] | IC50 [2] [nM] | Inhibition of Ras farnesylation in vivo [3]
1-[2(R)-Amino-3-mercaptopropyl]-4-(1-naphthoyl)-2(S)-(3-methoxy-1-propyl)piperazine dihydrochloride [Example 18] | 1 |  | 
CCCC[C@H]1CN(C(=O)c2cccc(C)c2C)CCN1C[C@@H](N)CS [Example 3, 1-[2(R)-Amino-3-mercaptopropyl]-2(S)-n-butyl-4-(2,3-dimethylbenzoyl)piperazine dihydrochloride] | 6 | 5000 | 
Cc1cccc(C(=O)N2CCN(C[C@@H](N)CS)[C@@H](Cc3ccccc3)C2)c1C [Example 6, 1-[2(R)-Amino-3-mercaptopropyl]-2(S)-benzyl-4-(2,3-dimethylbenzoyl)piperazine dihydrochloride] | 4 | 500 to 1000 | 
COCC[C@H]1CN(C(=O)c2cccc(C)c2C)CCN1C[C@@H](N)CS [Example 7, 1-[2(R)-Amino-3-mercaptopropyl]-4-(2,3-dimethylbenzoyl)-2(S)-(2-methoxyethyl)piperazine dihydrochloride] |  | 500 to 1000 | 
CSCC[C@H]1CN(C(=O)c2cccc(C)c2C)CCN1C[C@@H](N)CS [Example 8, 1-[2(R)-Amino-3-mercaptopropyl]-4-(2,3-dimethylbenzoyl)-2(S)-(2-methylthioethyl)piperazine dihydrochloride] | 11 | 500 to 1000 | 
COCC[C@H]1CN(C(=O)c2cccc3ccccc23)CCN1C[C@@H](N)CS [Example 12, 1-[2(R)-Amino-3-mercaptopropyl]-4-(1-naphthoyl)-2(S)-(2-methoxyethyl)piperazine dihydrochloride] | 5 | 500 | 
CCCOCC[C@H]1CN(C(=O)c2cccc3ccccc23)CCN1C[C@@H](N)CS [Example 13, 1-[2(R)-Amino-3-mercaptopropyl]-2(S)-(2-(1-propoxy)ethyl)-4-(1-naphthoyl)piperazine dihydrochloride] | 3 | 500 | 
N[C@@H](CS)CN1CCN(C(=O)c2cccc3ccccc23)C[C@@H]1CCOCc1cccnc1 [Example 14, 1-[2(R)-Amino-3-mercaptopropyl]-2(S)-(2-(3-pyridylmethoxy)ethyl)-4-(1-naphthoyl)piperazine trihydrochloride] | 1 |  | 
CCCOCC[C@H]1CN(C(=O)c2cccc3cccnc23)CCN1C[C@@H](N)CS [Example 15, 1-[2(R)-Amino-3-mercaptopropyl]-2(S)-(2-(1-propoxy)ethyl)-4-(8-quinolinylcarbonyl)piperazine trihydrochloride] | 6 |  | 
CCCC[C@H]1CN(C(=O)c2cccc3ccccc23)CCN1C[C@@H](N)CS [Example 16, 1-[2(R)-Amino-3-mercaptopropyl]-2(S)-n-butyl-4-(1-naphthoyl)piperazine dihydrochloride] | 2 | 500 | 
CCCC[C@H]1CN(C(=O)c2cccc3c2OCC3)CCN1C[C@@H](N)CS [Example 17, 1-[2(R)-Amino-3-mercaptopropyl]-2(S)-n-butyl-4-[7-(2,3-dihydrobenzofuranoyl)]piperazine dihydrochloride] | 6 | 500 | 
CCCC[C@H]1CN(C(=O)c2cccc3cccnc23)CCN1C[C@@H](N)CS [Example 19, 1-(2(R)-Amino-3-mercaptopropyl)-2(S)-n-butyl-4-(8-quinolinylcarbonyl)piperazine trihydrochloride] | 5 | 1000 | 
COCC[C@H]1CN(C(=O)c2cccc3ccccc23)CCN1C[C@@H](N)CSSC[C@H](N)CN1CCN(C(=O)c2cccc3ccccc23)C[C@@H]1CCOC [Example 21, bis-1, 1'-[2(R)-Amino-3-(2(S)-(2-methoxyethyl)-4-naphthoyl-1-piperazinyl)]propyl disulfide tetrahydrochloride] | 1 |  | 
CC(=O)NCCCC[C@H]1CN(C(=O)c2cccc3ccccc23)CCN1C[C@@H](N)CS [Example 27, 1-[2(R)-Amino-3-mercaptopropyl]-4-(1-naphthoyl)-2(S)-(4-acetamidobutyl)piperazine dihydrochloride] | 3.5 | 500 | 
N[C@@H](CS)CN1CCCN(C(=O)c2cccc3ccccc23)CC1 [Example 28, 1-(2(R)-Amino-3-mercaptopropyl)-4-(1-naphthoyl)homopiperazine dihydrochloride] | 21 | 10000 | 
NC(CS)CN1CCN(C(=O)c2cccc3ccccc23)CC1C(=O)N1CCCCC1 [Example 30, 1-(2(R)-Amino-3-mercaptopropyl)-4-(1-naphthoyl)-2(S)-piperidylcarboxyl-4-piperazine dihydrochloride] | 3 | 500 | 
COC(=O)C1CN(C[C@@H](N)CS)CCN1Cc1cccc2ccccc12 (stereo partly drawn) [Example 31, Methyl 4-(2(R)-amino-3-mercaptopropyl)-l-(1-naphthylmethyl)piperazine-2-carboxylate hydrochloride] | 2.9 | 10000 | 
CC[C@H](C)C(=O)O[C@H]1CCC=C2C=C[C@H](C)[C@H](CC[C@@H]3C[C@@H](O)CC(=O)O3)[C@H]21 [compactin] |  |  | Inhibition of Ras farnesylation in vivo has been demonstrated
CC[C@H](C)C(=O)O[C@H]1C[C@@H](C)C=C2C=C[C@H](C)[C@H](CC[C@@H]3C[C@@H](O)CC(=O)O3)[C@H]21 [lovastatin] |  |  | Inhibition of Ras farnesylation in vivo has been demonstrated
